Data as given in patent US20260125356A1, “TREATMENT OF LEISHMANIASIS” (THE UNIVERSITY OF DURHAM, priority 2022, published 2026).
≈ marks a conversion by molar mass, not a printed value.

Key:
[1] = system: L. donovani promastigotes; experiment: L. donovani promastigote dose response assay (resazurin); format: cell-based; details: Leishmania donovani; promastigotes, 72 hrs at 26° C., resazurin; read-out: EC50 (L. don)/μM
L. major promastigotes = experiment: L. major promastigote dose response assay (alamarBlue/resazurin); format: cell-based; details: Leishmania major, 48 h, 44 hrs + 4 hrs alamarBlue/resazurin, 26° C.
Procedure: Using a standard alamarBlue™ assay, activity and selectivity were assessed using L. major promastigotes and HepG2 cells, respectively.
All parasite and human cell cultures were grown and manipulated following biosafety level 2 instructions under sterile conditions. L. major FV1, L. amazonensis (MHOM/Br/75/JOSEFA), L. donovani BOB (derived from MHOM/SD/62/1S-CL2D), T. brucei (90-13, 427 strain) and T. cruzi (Dm28c) were used throughout.
All steps were carried out under sterile conditions. Frozen stocks of the relevant Leishmania promastigote species were thawed rapidly and added to Schneider's media. Promastigotes were grown at 26° C. in Nunc EasYFlask 25 cm^2 Nunclon Delta Surface (ThermoScientific) and frozen stocks were prepared on low passage cultures (p2-4) by pelleting the cells by centrifugation and resuspending in Schneider's media with 10% DMSO. The cultures were aliquoted into cryovials (Starlab) and cooled slowly to −150° C. for long term storage.
All steps were carried out under sterile conditions. […] Cycloheximide or amphotericin B were used as positive controls and 2% DMSO was used as a negative control. alamarBlue® (ThermoFisher scientific) or resazurin solution was added to each well and incubated for a further 4 hrs at 26° C. Cell-viability was determined using a BioTek™ FLx800 microplate reader with Gen5® 1.08 data analysis software (BioTek) by monitoring fluorescence emission (λex 560/λem 590 nm). Dose response curves were fitted using sigmoidal regression analysis (GraphPad Prism 8 software) and used to calculate EC50 values.

Kinetic solubility = details: kinetic from dmso stock
From the text: All chemicals and solvents were sourced from commercial suppliers. Buffers were made up using purified water from a MilliQ® water purification system. Biorelevant buffers (FESSIF, FASSIF and FASSGF) were purchased from Biorelevant and made up according to manufacturer's instructions. 15% FBS (heat inactivated, South American origin, ThermoFisher scientific) in PBS (Fisher Scientific) was filter sterilised (0.22 μm Fisherbrand™ Sterile PES Syringe Filter, Fisher Scientific) before use. Sodium taurocholate was purchased from Merck.
λmax was determined for each compound from the UV-Vis absorption spectrum of a 200 LIM compound solution in buffer of interest using a Varian Cary® 100 UV-Vis Spectrophotometer. A calibration curve of λmax VS concentration was obtained by serial dilution of compound from 200 μM in the buffer of interest, correcting for background buffer absorption. For each sample, a DMSO solution of compound was incubated in buffer of interest (<5% DMSO) for 2 hrs at RT. The solution was filtered (0.22 μm Fisherbrand™ Sterile PES Syringe Filter, Fisher Scientific) or centrifuged (14,500 rpm, 10 min) to remove undissolved debris and the supernatant was removed and diluted as required. The corrected UV absorption of the supernatant at Amax Was measured using a Varian Cary® 100 UV-Vis Spectrophotometer and compared to the calibration curve to determine compound solubility.

[2] = system: L. amazonensis promastigotes; experiment: L. amazonensis promastigote dose response assay (alamarBlue/resazurin); format: cell-based; details: Leishmania amazonensis, 48 h, 44 hrs + 4 hrs alamarBlue/resazurin, 26° C., read-out: EC50 (L. amaz)/μM
T. cruzi epimastigotes = experiment: T. cruzi epimastigote dose response assay; format: cell-based; details: Trypanosoma cruzi; epimastigotes, 72 hours at 28° C., counted; read-out: EC50 (T. cruzi)/μM
[3] = system: T. brucei bloodstream trypomastigotes; experiment: T. brucei bloodstream trypomastigote dose response assay; format: cell-based; details: Trypanosoma brucei; bloodstream trypomastigotes, 48 hrs, CellTiter Blue; read-out: EC50 (T. brucei)/μM

CNC(=O)c1ccc(OCCN2CCOCC2)cc1NC(=O)c1ccc([N+](=O)[O-])s1 [Compound 52, N-[2-(methylcarbamoyl)-5-[2″-(morpholin-4″-yl)ethoxy]phenyl]-5′-nitrothiophene-2′-carboxamide]
EC50 [1]: 0.134 µM | EC50 (L. major promastigotes): 0.44 µM | solubility at 2 h (Kinetic solubility; FASSGF, fassgf or other biorelevant): > 8000 µM | solubility at 2 h (Kinetic solubility; FASSIF): 148 µM (≈ 64.3 µg/mL) | solubility at 2 h (Kinetic solubility; FESSIF): 1870 µM (≈ 812 µg/mL) | solubility at 2 h (Kinetic solubility; PBS, aqueous buffer): 19.3 µM (≈ 8.39 µg/mL) | EC50 [2]: 0.27 µM | EC50 (T. cruzi epimastigotes): 13 ± 1 µM | EC50 [3]: 0.78 ± 0.4 µM
